Results published in patent US9403830B2, “Inhibitors of leukotriene production” (Boehringer Ingelheim International GmbH, priority 2012, dated 2016).

Tests used:
human LTA4 hydrolase = target: T1, human LTA4 hydrolase (Homo sapiens, UniProt P09960); test: LTA4H Enzyme assay (peptidase, Arg-AMC cleavage); assay type: biochemical; settings: LTA4H enzyme 1 nM, Arg-AMC substrate 50 μM, room temperature 1 h, fluorescence 380/460 nm
T1 sequence (P09960 1-611): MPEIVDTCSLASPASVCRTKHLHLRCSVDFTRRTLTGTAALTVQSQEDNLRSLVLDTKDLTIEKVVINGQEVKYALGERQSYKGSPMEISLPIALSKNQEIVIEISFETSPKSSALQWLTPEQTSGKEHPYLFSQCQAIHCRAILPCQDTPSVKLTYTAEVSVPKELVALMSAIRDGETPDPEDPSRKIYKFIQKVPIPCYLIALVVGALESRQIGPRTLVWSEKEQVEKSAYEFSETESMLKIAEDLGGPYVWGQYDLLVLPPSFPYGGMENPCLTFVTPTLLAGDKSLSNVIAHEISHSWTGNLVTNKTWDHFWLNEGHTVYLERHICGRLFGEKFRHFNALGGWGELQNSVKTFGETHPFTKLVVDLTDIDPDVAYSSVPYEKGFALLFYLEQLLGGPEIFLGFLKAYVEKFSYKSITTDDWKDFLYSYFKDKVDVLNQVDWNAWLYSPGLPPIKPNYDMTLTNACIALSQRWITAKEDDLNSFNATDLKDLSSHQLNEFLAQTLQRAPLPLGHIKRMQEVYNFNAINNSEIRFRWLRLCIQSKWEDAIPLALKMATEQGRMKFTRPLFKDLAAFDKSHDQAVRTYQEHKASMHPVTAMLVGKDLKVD
How it was run: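 Human LTA4H (1 nM final) incubated with compound and Arg-AMC (50 μM final) in 50 mM Tris-HCl pH 7.5, 100 mM KCl, 0.5% BSA, 1 h at room temperature. Product read as AMC fluorescence (ex 380/em 460 nm); IC50 reported.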

[1] = system: LTB4 synthesis in human whole blood; test: human whole blood (HWB) assay, inhibition of LTB4 production; assay type: cell-based; settings: heparinized human whole blood, calcimycin 20 μM stimulation, plasma LTB4
How it was run: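 Plasma LTB4, quantified by HTRF immunoassay, is the read-out after calcimycin challenge (20 μM final, 30 min, 37 °C) of heparinized whole blood that had been pretreated with compound for 15 min at 37 °C; values given as IC50.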

SMILES | IC50 (human LTA4 hydrolase) [µM] | IC50 [1] [µM]
CN(C)C(=O)C1CCN(CC2Cc3ccc(Oc4ccc(-c5ccn[nH]5)cc4)cc3O2)CC1 (stereo not drawn) [Example 197, 1-{6-[4-(2H-Pyrazol-3-yl)-phenoxy]-2,3-dihydro-benzofuran-2-ylmethyl}-piperidine-4-carboxylic acid dimethylamide] | 0.00046 | 0.18
COCC1CCCCN1Cc1nc2cc(Oc3ccc(-c4ccn[nH]4)cc3)ccc2[nH]1 (stereo not drawn) [Example 168, 2-(2-Methoxymethyl-piperidin-1-ylmethyl)-5-[4-(2H-pyrazol-3-yl)-phenoxy]-1H-benzoimidazole] | 0.00013 | 0.12
COCC(=O)NC1CCN(Cc2ccc3cc(Oc4ccc(-c5cc[nH]n5)cn4)ccc3n2)CC1 [Example 236, 2-Methoxy-N-(1-{6-[5-(1H-pyrazol-3-yl)-pyridin-2-yloxy]-quinolin-2-ylmethyl}-piperidin-4-yl)-acetamide] | 0.00096 | 0.2
OCC1CCCCN1Cc1nc2cc(Oc3ccc(-c4ccn[nH]4)cc3)ccc2[nH]1 (stereo not drawn) [Example 195, (1-{5-[4-(2H-Pyrazol-3-yl)-phenoxy]-1H-benzoimidazol-2-ylmethyl}-piperidin-2-yl)-methanol] | 0.00014 | 0.18
CC(=O)N1CCN(Cc2cc3cc(Oc4ccc(-c5ccn[nH]5)cn4)ccc3[nH]2)CC1 [Example 222, 1-(4-{5-[5-(2H-Pyrazol-3-yl)-pyridin-2-yloxy]-1H-indol-2-ylmethyl}-piperazin-1-yl)-ethanone] | 0.00073 | 0.23
O=C1CC[C@H](Oc2ccc3cc(Oc4ccc(-c5ccn[nH]5)cc4)ccc3n2)CN1 [Example 68, (S)-5-{6-[4-(2H-Pyrazol-3-yl)-phenoxy]-quinolin-2-yloxy}-piperidin-2-one] | 0.0042 | 0.59
c1cc(-c2ccc(Oc3ccc4nc(CN5CCCC5)ccc4c3)nc2)[nH]n1 [Example 19, 6-[5-(2H-Pyrazol-3-yl)-pyridin-2-yloxy]-2-pyrrolidin-1-ylmethyl-quinoline] | 0.00024 | 0.07
C[C@H]1COC[C@H](C)N1Cc1nc2cc(Oc3ccc(-c4ccn[nH]4)cc3)ccc2[nH]1 [Example 55, 2-((3S,5S)-3,5-Dimethyl-morpholin-4-ylmethyl)-5-[4-(2H-pyrazol-3-yl)-phenoxy]-1H-benzoimidazole] | 0.00013 | 0.1
c1cc(-c2ccc(Oc3ccc4[nH]c(CNC5CCCC5)nc4c3)cc2)[nH]n1 [Example 188, Cyclopentyl-{5-[4-(2H-pyrazol-3-yl)-phenoxy]-1H-benzoimidazol-2-ylmethyl}-amine] | 0.00013 | 0.16
CC(=O)NCCNCc1ccc2cc(Oc3ccc(-c4ccn[nH]4)cn3)ccc2n1 [Example 121, N-[2-({6-[5-(2H-Pyrazol-3-yl)-pyridin-2-yloxy]-quinolin-2-ylmethyl}-amino)-ethyl]-acetamide] | 0.0015 | 0.39
CC(=O)NCC1CCN(CC2Cc3ccc(Oc4ccc(-c5ccn[nH]5)cn4)cc3O2)CC1 (stereo not drawn) [Example 128, N-(1-{6-[5-(2H-Pyrazol-3-yl)-pyridin-2-yloxy]-2,3-dihydro-benzofuran-2-ylmethyl}-piperidin-4-ylmethyl)-acetamide] | 0.00074 | 0.17
O=C1OCCN1Cc1cn2cc(Oc3ccc(-c4ccn[nH]4)cc3)ccc2n1 [Example 255, 3-{6-[4-(2H-Pyrazol-3-yl)-phenoxy]-imidazo[1,2-a]pyridin-2-ylmethyl}-oxazolidin-2-one] | 0.0017 | 0.36
c1cc(-c2ccc(Oc3ccc4[nH]c(CNCC5CCOCC5)nc4c3)cc2)[nH]n1 [Example 106, {5-[4-(2H-Pyrazol-3-yl)-phenoxy]-1H-benzoimidazol-2-ylmethyl}-(tetrahydro-pyran-4-ylmethyl)-amine] | 0.00017 | 0.2
CS(=O)(=O)NC1CCN(CCc2coc3cc(Oc4ccc(-c5ccn[nH]5)cn4)ccc23)CC1 [Example 141, N-[1-(2-{6-[5-(2H-Pyrazol-3-yl)-pyridin-2-yloxy]-benzofuran-3-yl}-ethyl)-piperidin-4-yl]-methanesulfonamide] | 0.00035 | 0.2
CN(CC(N)=O)Cc1ccc2cc(Oc3ccc(-c4ccn[nH]4)cn3)ccc2n1 [Example 47, 2-(Methyl-{6-[5-(2H-pyrazol-3-yl)-pyridin-2-yloxy]-quinolin-2-ylmethyl}-amino)-acetamide] | 0.0013 | 0.57
CC(=O)N1CCN(Cc2ccc3cc(Oc4ccc(-c5ccn[nH]5)cn4)ccc3c2)CC1 [Example 2, 1-(4-{6-[5-(2H-Pyrazol-3-yl)-pyridin-2-yloxy]-naphthalen-2-ylmethyl}-piperazin-1-yl)-ethanone] | 0.00039 | 0.13
CC(=O)N1CC2CCC1CN2Cc1ccc2cc(Oc3ccc(-c4ccn[nH]4)cn3)ccc2n1 (stereo not drawn) [Example 148, 1-(5-{6-[5-(2H-Pyrazol-3-yl)-pyridin-2-yloxy]-quinolin-2-ylmethyl}-2,5-diaza-bicyclo[2.2.2]oct-2-yl)-ethanone] | 0.00046 | 0.15
CC(C)(O)C(=O)NC1CCN(CCn2cc3cc(Oc4ccc(-c5ccn[nH]5)cn4)ccc3n2)CC1 [Example 112, 2-Hydroxy-2-methyl-N-[1-(2-{5-[5-(2H-pyrazol-3-yl)-pyridin-2-yloxy]-indazol-2-yl}-ethyl)-piperidin-4-yl]-propionamide] | 0.0021 | 0.28
CN(Cc1nc2cc(Oc3ccc(-c4ccn[nH]4)cc3)ccc2[nH]1)C1CC1 [Example 179, Cyclopropyl-methyl-{5-[4-(2H-pyrazol-3-yl)-phenoxy]-1H-benzoimidazol-2-ylmethyl}-amine] | 0.0002 | 0.15
FC(F)(F)CN1CCN(Cc2nc3cc(Oc4ccc(-c5ccn[nH]5)cc4)ccc3[nH]2)CC1 [Example 63, 5-[4-(2H-Pyrazol-3-yl)-phenoxy]-2-[4-(2,2,2-trifluoro-ethyl)-piperazin-1-ylmethyl]-1H-benzoimidazole] | 0.00011 | 0.15
CN(C)CCn1ncc2cc(Oc3ccc(-c4ccn[nH]4)cc3)ccc21 [Example 162, Dimethyl-(2-{5-[4-(2H-pyrazol-3-yl)-phenoxy]-indazol-1-yl}-ethyl)-amine] | 0.00061 | 0.12
CN(Cc1nc2cc(Oc3ccc(-c4ccn[nH]4)cc3)ccc2[nH]1)CC1CCOC1 (stereo not drawn) [Example 104, Methyl-{5-[4-(2H-pyrazol-3-yl)-phenoxy]-1H-benzoimidazol-2-ylmethyl}-(tetrahydro-furan-3-ylmethyl)-amine] | 0.00027 | 0.19
O[C@H]1CCN(Cc2ccc3cc(Oc4ccc(-c5ccn[nH]5)cn4)ccc3n2)C1 [Example 210, (S)-1-{6-[5-(2H-Pyrazol-3-yl)-pyridin-2-yloxy]-quinolin-2-ylmethyl}-pyrrolidin-3-ol] | 0.00082 | 0.23
CC(=O)N1CCN(CCn2ncc3cc(Oc4ccc(-c5ccn[nH]5)cc4)ccc32)CC1 [Example 90, 1-[4-(2-{5-[4-(2H-Pyrazol-3-yl)-phenoxy]-indazol-1-yl}-ethyl)-piperazin-1-yl]-ethanone] | 0.00045 | 0.13
CO[C@H]1CCN(Cc2ccc3cc(Oc4ccc(-c5ccn[nH]5)cn4)ccc3n2)C1 [Example 208, 2-((S)-3-Methoxy-pyrrolidin-1-ylmethyl)-6-[5-(2H-pyrazol-3-yl)-pyridin-2-yloxy]-quinoline] | 0.0012 | 0.22
O=C1CCCN1C1CCN(CC2Cc3ccc(Oc4ccc(-c5ccn[nH]5)cc4)cc3O2)CC1 (stereo not drawn) [Example 198, 1-(1-{6-[4-(2H-Pyrazol-3-yl)-phenoxy]-2,3-dihydro-benzofuran-2-ylmethyl}-piperidin-4-yl)-pyrrolidin-2-one] | 0.00035 | 0.18
c1cc(-c2ccc(Oc3ccc4c(cnn4CCCN4CCCC4)c3)cc2)[nH]n1 [Example 79, 5-[4-(2H-Pyrazol-3-yl)-phenoxy]-1-(3-pyrrolidin-1-yl-propyl)-1H-indazole] | 0.0003 | 0.098
CCNCc1nc2cc(Oc3ccc(-c4ccn[nH]4)cc3)ccc2[nH]1 [Example 191, Ethyl-{5-[4-(2H-pyrazol-3-yl)-phenoxy]-1H-benzoimidazol-2-ylmethyl}-amine] | 0.00018 | 0.17
c1cc(-c2ccc(Oc3ccc4nc(OCCN5CCOCC5)ccc4c3)nc2)[nH]n1 [Example 120, 2-(2-morpholin-4-yl-ethoxy)-6-[5-(2H-pyrazol-3-yl)-pyridin-2-yloxy]-quinoline] | 0.025 | 3.1
c1cc(-c2ccc(Oc3ccc4c(cnn4CCN4CCOCC4)c3)cc2)[nH]n1 [Example 102, 1-(2-Morpholin-4-yl-ethyl)-5-[4-(2H-pyrazol-3-yl)-phenoxy]-1H-indazole] | 0.00091 | 0.19
